Laboratory results: paper PMC12673918, “Design, Synthesis, and Selective Antiproliferative Activity of Indolizine Derivatives as Microtubule Destabilizers” (Archiv Der Pharmazie, 2025)
Read-outs that look alike come from different tables or passages of the source.

Assays:
Format in all cases: cell-based
human P2X4 receptor = biological target: T1, human P2X4 receptor (Homo sapiens, UniProt Q99571); test: Ca2+‐flux assay for the hP2X4 receptor; details: read-out: % Inhibition of P2X4R at 10 µM compounds’ concentration
T1 construct: expressed in transfected cells; host or cells: human 1321N1 astrocytoma cells
T1 sequence (Q99571 1-388): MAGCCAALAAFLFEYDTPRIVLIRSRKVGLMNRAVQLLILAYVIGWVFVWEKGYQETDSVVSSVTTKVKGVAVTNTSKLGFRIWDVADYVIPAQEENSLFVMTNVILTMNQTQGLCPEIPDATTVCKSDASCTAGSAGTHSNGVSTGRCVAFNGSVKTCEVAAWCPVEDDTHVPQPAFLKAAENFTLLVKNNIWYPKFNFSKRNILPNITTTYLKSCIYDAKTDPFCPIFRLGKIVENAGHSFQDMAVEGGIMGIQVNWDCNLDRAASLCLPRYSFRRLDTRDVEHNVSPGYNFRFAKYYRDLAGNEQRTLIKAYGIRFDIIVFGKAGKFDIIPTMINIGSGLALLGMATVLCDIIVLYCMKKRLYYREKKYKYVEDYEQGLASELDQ
Protocol: Human 1321N1 astrocytoma cells stably expressing the human P2X4 receptor (generated in‐house) were cultured in Dulbecco's Modified Eagle Medium supplemented with 9% (v/v) FCS, 1% (v/v) Penicillin/Streptomycin (10000 I.U./mL, 10 mg/mL in 0.9% NaCl) and puromycin (1 µg/mL) as a selection antibiotic at 37°C and 5% CO2. Cells were subcultured in cell culture 75 cm^2 flasks and split every 2–4 days (1:5; 1:6) once confluent.
1321N1 cells stably expressing human P2X4 receptor were seeded into black‐walled 96‐well plates (Thermo Fisher Scientific) at 2.5 × 10^4 cells/well and incubated at 37°C for 24–48 h. All test compounds were diluted in assay buffer solution (SBS: 135 mM NaCl; 5 mM KCl; 1 mM MgCl2.6 H2O; 1.8 mM CaCl2; 5.6 mM D‐Glucose; 10 mM HEPES, 0.1% (m/v) BSA, 0.05% (m/v) gelatine, 2.3 mM probenecid). The culture medium was removed, and 100 µL of 4 μM fluorescent Ca^2+ indicator Calbryte520AM in SBS was added and incubated at 37°C for 1 h. The dye solution was then removed, 100 µL of SBS solution and 50 µL of antagonist dilutions (10^–5–10^–9 M) in SBS were added, and the cells were incubated at room temperature for an extra 30 min. Finally, 50 µL of ATP (at a concentration of the previously determined EC50‐ value) was added by using FlexStation 3 Multi‐Mode Microplate Reader (Molecular Devices, San Jose, CA, USA, Software SoftMax7 Pro). The changes in intracellular Ca^2+ ion concentrations were monitored over 200 s (20 s baseline) by measuring the fluorescence signal at λ ex = 494 nm and λ em = 516 nm ([…] cut‐off). The concentration‐dependent decrease in Ca^2+‐flux, expressed as RFU, was plotted against the concentrations of the compounds.

CAL‐27 (oral carcinoma) = test: Resazurin cell viability assay, CAL‐27; details: Homo sapiens, CAL-27; for inhibition at 50 µM: read-out: % Cellular growth inhibition (at 50 µM) CAL‐27
Method in brief: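 Cells in DMEM/10% FBS, 1 × 10^3 per well, adhered overnight, then treated with compounds (0–50 µM) for 72 h. Viability read as fluorescence (ex 530, em 590 nm) after 4 h with 44 µM resazurin. % growth inhibition at 50 µM and IC50 by nonlinear regression, triplicates.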

[1] = tested on: CAL‐27, BT‐20 and HGC‐27 cancer cell lines; test: Resazurin antiproliferative screening, cancer cell line panel; details: for level of inhibition in the 50 µM screening: 70% inhibition threshold; for IC50: range over CAL‐27, BT‐20, HGC‐27, read-out: IC50 values across cancer cell lines
Protocol: (§1) The tongue squamous cell carcinoma cell line CAL‐27 (ATCC CRL‐2095), breast carcinoma BT‐20 (ATCC HTB‐19), gastric carcinoma HGC‐27 (BCRJ Code 0310), and normal oral fibroblast OHMF (culture of fibroblasts derived from human oral healthy mucosa, approved by the Research Ethics Committee of the University of São Paulo, Campus of Ribeirão Preto, Brazil (with protocol number 049) were cultured in DMEM medium (DMEM, Sigma‐Aldrich, St. Louis, MO, USA) supplemented with 10% fetal bovine serum and a solution of penicillin (100 U/mL) and streptomycin (100 μg/mL). The cultures were maintained in a humidified incubator with 5% CO₂ at 37°C.
(§2) Cell viability was analyzed using the resazurin assay. For this, cells were seeded in 96‐well plates (1 × 10^3 cells per well) and incubated at 37°C with 5% CO₂ overnight for cell adhesion. Subsequently, the cells were treated with different compounds (0–50 µM) for 72 h. After treatment, the medium was replaced with phenol‐free DMEM medium (Sigma‐Aldrich) containing resazurin at a concentration of 44 µM (Sigma‐Aldrich). After incubation for 4 h at 37°C, fluorescence detection was performed (excitation 530/25 nm, emission 590/35 nm) using a microplate fluorimeter (Synergy 2, Biotek). Initial cell growth inhibition assays were performed in triplicate or quadruplicate, while IC50 determinations were conducted in triplicate. Data were plotted, and IC₅₀ values were determined by nonlinear regression using GraphPad Prism software 9.0.

[2] = tested on: OHMF (non‐tumoral oral fibroblast); test: Resazurin cell viability assay, OHMF fibroblasts; details: Homo sapiens, 72 h, n = 3
Protocol: as §1, §2

GNP15 = test: Resazurin cellular growth inhibition, GNP15; details: 72 hours, triplicate; read-out: IC50 (nM, Cellular growth inhibition) GNP15 (supplement)
Protocol: ^b IC50 values were determined using the same resazurin-based assay, with fluorescence measurements performed after 72 hours of treatment. These experiments were carried out in triplicate.

[3] = tested on: BT‐20 breast cancer cells; test: Cell‐cycle assay by flow cytometry; details: 2.5 µM, 24 h
Protocol: BT‐20 cells were seeded in 10 cm plates (1.5 × 10⁶ cells/plate) and incubated at 37°C with 5% CO₂ for 24 h. Subsequently, the cells were treated with different compounds at a concentration of 2.5 µM for 24 h. After treatment, the cells were collected by centrifugation and fixed in cold 70% ethanol for 1 h at 4°C. The cells were then washed, collected by centrifugation, and treated with RNase A (100 μg/mL, Sigma‐Aldrich) for 30 min at 37°C, followed by staining with propidium iodide (50 μg/mL) for 15 min at 37°C. Finally, the percentages of cells in each phase of the cell cycle were determined using FACSCalibur flow cytometry (BD Biosciences—San Jose, CA, USA). Cell‐cycle distribution was analyzed using ModFit LT V3.3 software.

[4] = 72 h, mean ± SD, n = 3, read-out: IC50 (nM) CAL‐27
[5] = 72 hours, triplicate, read-out: IC50 (nM, Cellular growth inhibition) CAL-27 (supplement)

SMILES	inhibition at 10 µM (human P2X4 receptor) [%]	IC50 (CAL‐27 (oral carcinoma); [4]) [nM]	IC50 (CAL‐27 (oral carcinoma); [5]) [nM]	inhibition at 50 µM (CAL‐27 (oral carcinoma); 72 h, mean ± SD, n = 3) [%]	level of inhibition in the 50 µM screening [1]	IC50 [2] [nM]	IC50 (GNP15) [nM]	cell‐cycle distribution [3]	IC50 [1] [nM]
COc1ccc2c(C(=O)c3cc(OC)c(OC)c(OC)c3)c(C(C)(C)C)cn2c1 [Compound 8b, [2‐(Tert‐Butyl)‐6‐Methoxyindolizin‐1‐yl](3,4,5‐Trimethoxyphenyl)Methanone]	-6	–	–	84 ± 3.2	89.5% to 73.1	–	–	–	–
COc1ccc2c(C(=O)c3ccc(Cl)c(Cl)c3)ccn2c1 [Compound 7e, (6‐methoxyindolizin‐1‐yl)(3,4‐dichlorophenyl)methanone]	-3	12400	11900	70 ± 3.8	–	> 50000	> 50000	–	–
CCCc1cn2cc(OC)ccc2c1C(=O)c1cc(OC)c(OC)c(OC)c1 [Compound 8h, (6‐methoxy‐2‐propylindolizin‐1‐yl)(3,4,5‐trimethoxyphenyl)methanone]	6	47 ± 18	75 ± 35	90 ± 1.8	89.5% to 73.1	> 50000	> 50000	significant accumulation of cells in the G2/M phase	47 to 117
COc1ccc2c(C(=O)c3cc(OC)c(OC)c(OC)c3)c(C(F)(F)F)cn2c1 [Compound 8e, [6‐methoxy‐2‐(trifluoromethyl)indolizin‐1‐yl](3,4,5‐trimethoxyphenyl)methanone]	-9	75 ± 21	117 ± 32	76 ± 1.3	89.5% to 73.1	> 50000	> 50000	significant accumulation of cells in the G2/M phase	47 to 117

Further lines, with some results ahead:

inhibition at 10 µM (human P2X4 receptor) [%]	IC50 (CAL‐27 (oral carcinoma); [4]) [nM]	IC50 (CAL‐27 (oral carcinoma); [5]) [nM]	SMILES	inhibition at 50 µM (CAL‐27 (oral carcinoma); 72 h, mean ± SD, n = 3) [%]	level of inhibition in the 50 µM screening [1]	IC50 [2] [nM]	IC50 (GNP15) [nM]	cell‐cycle distribution [3]	IC50 [1] [nM]
7	690 ± 156	880 ± 14	COc1ccc(-c2cn3cc(OC)ccc3c2C(=O)c2cc(OC)c(OC)c(OC)c2)cc1 [Compound 8k, [6‐methoxy‐2‐(4‐methoxyphenyl)indolizin‐1‐yl](3,4,5‐trimethoxyphenyl)methanone]	73 ± 4.5	89.5% to 73.1	> 50000	> 50000	–	–
0	300 ± 85	465 ± 35	COc1ccc2c(C(=O)c3cc(OC)c(OC)c(OC)c3)c(-c3ccc(C)cc3)cn2c1 [Compound 8j, [6‐methoxy‐2‐(p ‐tolyl)indolizin‐1‐yl](3,4,5‐trimethoxyphenyl)methanone]	73 ± 4	89.5% to 73.1	> 50000	> 50000	–	–
5	325 ± 92	410 ± 212	COc1ccc2c(C(=O)c3cc(OC)c(OC)c(OC)c3)c(C)cn2c1 [Compound 8a, (6‐methoxy‐2‐methylindolizin‐1‐yl)(3,4,5‐trimethoxyphenyl)methanone]	64 ± 2.7	–	> 50000	> 50000	–	–
